Measurements published in PubChem BioAssay AID1745844 (Carcinogenic Potency Database (CPDB), 2022).
Activity calls are given as the source filed them. The rule behind the calls is not given here.

Tested on: rodent lifetime carcinogenesis bioassay, tumor incidence TD50
Assay: chronic cancer bioassays in animals – CPDB, compiled studies (AID 1745844)
Settings: in drinking water; for TD50: rat

With `COc1cc(-c2ccc(N=Nc3c(S(=O)(=O)O)cc4cc(S(=O)(=O)O)cc(N)c4c3O)c(OC)c2)ccc1N=Nc1c(S(=O)(=O)O)cc2cc(S(=O)(=O)O)cc(N)c2c1O` the TD50 (strain Fischer 344, females, site: Zymbal's gland, lesion: adenoma + carcinoma, dosed 96 weeks, study length 97 weeks) was 104 mg/kg/day, the TD50 (strain Fischer 344, females, site: Zymbal's gland, lesion: adenoma, dosed 96 weeks, study length 97 weeks) was 321 mg/kg/day and the TD50 (strain Fischer 344, females, site: Zymbal's gland, lesion: carcinoma, dosed 96 weeks, study length 97 weeks) was 150 mg/kg/day. For the same molecule, the TD50 (strain Fischer 344, females, site: any site (literature study), lesion: several types, types named in the paper, dosed 96 weeks, study length 97 weeks) was 20.4 mg/kg/day, the TD50 (strain Fischer 344, females, site: clitoral gland, lesion: adenoma + adenoma, bilateral + carcinoma + carcinoma, bilateral, dosed 96 weeks, study length 97 weeks) was 46.2 mg/kg/day and the TD50 (strain Fischer 344, females, site: clitoral gland, lesion: adenoma + adenoma, bilateral, dosed 96 weeks, study length 97 weeks) was 90.1 mg/kg/day. It also gave a TD50 (strain Fischer 344, females, site: clitoral gland, lesion: carcinoma + carcinoma, bilateral, dosed 96 weeks, study length 97 weeks) of 107 mg/kg/day, a TD50 (strain Fischer 344, females, site: colon, ascending + clitoral gland + colon + colon, descending + duodenum + jejunum + liver + multiple organs + palate + skin + tongue + uterus, lesion: adenomatous polyp + adenoma + adenoma, bilateral + carcinoma + carcinoma, bilateral + mucinous cystadenocarcinoma + adenocarcinoma + h, dosed 96 weeks, study length 97 weeks) of 21.3 mg/kg/day and a TD50 (strain Fischer 344, females, site: colon, ascending + colon + colon, descending, lesion: adenomatous polyp, dosed 96 weeks, study length 97 weeks) of 491 mg/kg/day. The TD50 (strain Fischer 344, females, site: duodenum + jejunum, lesion: mucinous cystadenocarcinoma + adenocarcinoma, dosed 96 weeks, study length 97 weeks) was 997 mg/kg/day, the TD50 (strain Fischer 344, females, site: jejunum, lesion: adenocarcinoma + mucinous cystadenocarcinoma, dosed 96 weeks, study length 97 weeks) was 1180 mg/kg/day and the TD50 (strain Fischer 344, females, site: liver, lesion: hepatocellular adenoma + hepatocellular carcinoma + neoplastic nodule, dosed 96 weeks, study length 97 weeks) was 394 mg/kg/day. For the same molecule, the TD50 (strain Fischer 344, females, site: liver, lesion: hepatocellular carcinoma + neoplastic nodule, dosed 96 weeks, study length 97 weeks) was 394 mg/kg/day, the TD50 (strain Fischer 344, females, site: liver, lesion: neoplastic nodule, dosed 96 weeks, study length 97 weeks) was 429 mg/kg/day and the TD50 (strain Fischer 344, females, site: multiple organs, lesion: mononuclear-cell leukemia, dosed 96 weeks, study length 97 weeks) was 50 mg/kg/day. It also gave a TD50 (strain Fischer 344, females, site: palate + tongue, lesion: squamous-cell carcinoma + squamous-cell papilloma, dosed 96 weeks, study length 97 weeks) of 81 mg/kg/day, a TD50 (strain Fischer 344, females, site: palate + tongue, lesion: squamous-cell carcinoma, dosed 96 weeks, study length 97 weeks) of 208 mg/kg/day and a TD50 (strain Fischer 344, females, site: palate + tongue, lesion: squamous-cell papilloma, dosed 96 weeks, study length 97 weeks) of 132 mg/kg/day. It also gave a TD50 (strain Fischer 344, females, site: palate, lesion: squamous-cell carcinoma, dosed 96 weeks, study length 97 weeks) of 456 mg/kg/day, a TD50 (strain Fischer 344, females, site: palate, lesion: squamous-cell papilloma, dosed 96 weeks, study length 97 weeks) of 157 mg/kg/day and a TD50 (strain Fischer 344, females, site: skin, lesion: squamous-cell carcinoma + squamous-cell papilloma, dosed 96 weeks, study length 97 weeks) of 158 mg/kg/day. The TD50 (strain Fischer 344, females, site: skin, lesion: squamous-cell papilloma, dosed 96 weeks, study length 97 weeks) was 174 mg/kg/day, the TD50 (strain Fischer 344, females, site: tongue, lesion: squamous-cell carcinoma + squamous-cell papilloma, dosed 96 weeks, study length 97 weeks) was 238 mg/kg/day and the TD50 (strain Fischer 344, females, site: tongue, lesion: squamous-cell carcinoma, dosed 96 weeks, study length 97 weeks) was 384 mg/kg/day. It also gave a TD50 (strain Fischer 344, females, site: uterus, lesion: adenocarcinoma + adenoma, dosed 96 weeks, study length 97 weeks) of 493 mg/kg/day, a TD50 (strain Fischer 344, females, site: uterus, lesion: endometrial stromal polyp + endometrial stromal sarcoma, dosed 96 weeks, study length 97 weeks) of 122 mg/kg/day and a TD50 (strain Fischer 344, females, site: uterus, lesion: endometrial stromal polyp, dosed 96 weeks, study length 97 weeks) of 132 mg/kg/day. For the same molecule, the TD50 (strain Fischer 344, males, site: Zymbal's gland, lesion: adenoma + carcinoma, dosed 97 weeks, study length 97 weeks) was 89.2 mg/kg/day, the TD50 (strain Fischer 344, males, site: Zymbal's gland, lesion: adenoma, dosed 97 weeks, study length 97 weeks) was 237 mg/kg/day and the TD50 (strain Fischer 344, males, site: Zymbal's gland, lesion: carcinoma, dosed 97 weeks, study length 97 weeks) was 132 mg/kg/day. It also gave a TD50 (strain Fischer 344, males, site: adrenal medulla, lesion: pheochromocytoma benign, bilateral + pheochromocytoma, benign, dosed 97 weeks, study length 97 weeks) of 39.8 mg/kg/day, a TD50 (strain Fischer 344, males, site: adrenal medulla, lesion: pheochromocytoma benign, bilateral + pheochromocytoma, complex + pheochromocytoma, malignant + pheochromocytoma, benign, dosed 97 weeks, study length 97 weeks) of 36.6 mg/kg/day and a TD50 (strain Fischer 344, males, site: any site (literature study), lesion: several types, types named in the paper, dosed 97 weeks, study length 97 weeks) of 12 mg/kg/day. The TD50 (strain Fischer 344, males, site: brain, medulla + cerebrum, lesion: astrocytoma, malignant, dosed 97 weeks, study length 97 weeks) was 600 mg/kg/day, the TD50 (strain Fischer 344, males, site: colon, ascending + colon + colon, descending + jejunum + liver + palate + pharynx + preputial gland + skin + tongue + Zymbal's gland, lesion: adenomatous polyp + adenocarcinoma + mucinous cystadenocarcinoma + hepatocellular carcinoma + neoplastic nodule + squamous-cell pa, dosed 97 weeks, study length 97 weeks) was 11.8 mg/kg/day and the TD50 (strain Fischer 344, males, site: colon, ascending + colon + colon, descending, lesion: adenomatous polyp + adenocarcinoma, dosed 97 weeks, study length 97 weeks) was 162 mg/kg/day. For the same molecule, the TD50 (strain Fischer 344, males, site: colon, ascending + colon + colon, descending, lesion: adenomatous polyp, dosed 97 weeks, study length 97 weeks) was 310 mg/kg/day, the TD50 (strain Fischer 344, males, site: colon, lesion: adenocarcinoma, dosed 97 weeks, study length 97 weeks) was 355 mg/kg/day and the TD50 (strain Fischer 344, males, site: jejunum, lesion: adenocarcinoma + adenomatous polyp + mucinous cystadenocarcinoma, dosed 97 weeks, study length 97 weeks) was 1630 mg/kg/day. It also gave a TD50 (strain Fischer 344, males, site: liver, lesion: hepatocellular adenoma + hepatocellular carcinoma + neoplastic nodule, dosed 97 weeks, study length 97 weeks) of 55.2 mg/kg/day, a TD50 (strain Fischer 344, males, site: liver, lesion: hepatocellular carcinoma + neoplastic nodule, dosed 97 weeks, study length 97 weeks) of 55.2 mg/kg/day and a TD50 (strain Fischer 344, males, site: liver, lesion: hepatocellular carcinoma, dosed 97 weeks, study length 97 weeks) of 375 mg/kg/day. It also gave a TD50 (strain Fischer 344, males, site: liver, lesion: neoplastic nodule, dosed 97 weeks, study length 97 weeks) of 65.3 mg/kg/day, a TD50 (strain Fischer 344, males, site: multiple organs, lesion: mononuclear-cell leukemia, dosed 97 weeks, study length 97 weeks) of 23 mg/kg/day and a TD50 (strain Fischer 344, males, site: palate + pharynx + tongue, lesion: squamous-cell papilloma + squamous-cell carcinoma, dosed 97 weeks, study length 97 weeks) of 39.3 mg/kg/day. It also gave a TD50 (strain Fischer 344, males, site: palate + tongue, lesion: squamous-cell papilloma, dosed 97 weeks, study length 97 weeks) of 43.6 mg/kg/day, a TD50 (strain Fischer 344, males, site: palate, lesion: squamous-cell papilloma, dosed 97 weeks, study length 97 weeks) of 47 mg/kg/day and a TD50 (strain Fischer 344, males, site: pharynx + tongue, lesion: squamous-cell carcinoma, dosed 97 weeks, study length 97 weeks) of 361 mg/kg/day. For the same molecule, the TD50 (strain Fischer 344, males, site: pharynx, lesion: squamous-cell carcinoma, dosed 97 weeks, study length 97 weeks) was 466 mg/kg/day, the TD50 (strain Fischer 344, males, site: preputial gland, lesion: adenoma + adenoma, bilateral + carcinoma + carcinoma, bilateral, dosed 97 weeks, study length 97 weeks) was 55.3 mg/kg/day and the TD50 (strain Fischer 344, males, site: preputial gland, lesion: adenoma + adenoma, bilateral, dosed 97 weeks, study length 97 weeks) was 77.1 mg/kg/day. For the same molecule, the TD50 (strain Fischer 344, males, site: preputial gland, lesion: carcinoma + carcinoma, bilateral, dosed 97 weeks, study length 97 weeks) was 207 mg/kg/day, the TD50 (strain Fischer 344, males, site: skin, lesion: basal-cell adenoma + basal-cell carcinoma + sebaceous adenoma, dosed 97 weeks, study length 97 weeks) was 18.1 mg/kg/day and the TD50 (strain Fischer 344, males, site: skin, lesion: basal-cell adenoma + basal-cell carcinoma, dosed 97 weeks, study length 97 weeks) was 19.6 mg/kg/day. It also gave a TD50 (strain Fischer 344, males, site: skin, lesion: basal-cell adenoma, dosed 97 weeks, study length 97 weeks) of 21.6 mg/kg/day, a TD50 (strain Fischer 344, males, site: skin, lesion: basal-cell carcinoma, dosed 97 weeks, study length 97 weeks) of 101 mg/kg/day and a TD50 (strain Fischer 344, males, site: skin, lesion: keratoacanthoma, dosed 97 weeks, study length 97 weeks) of 152 mg/kg/day. For the same molecule, the TD50 (strain Fischer 344, males, site: skin, lesion: sebaceous adenoma, dosed 97 weeks, study length 97 weeks) was 108 mg/kg/day, the TD50 (strain Fischer 344, males, site: skin, lesion: squamous-cell carcinoma + squamous-cell papilloma, dosed 97 weeks, study length 97 weeks) was 51 mg/kg/day and the TD50 (strain Fischer 344, males, site: skin, lesion: squamous-cell carcinoma, dosed 97 weeks, study length 97 weeks) was 89.7 mg/kg/day. It also gave a TD50 (strain Fischer 344, males, site: skin, lesion: squamous-cell papilloma, dosed 97 weeks, study length 97 weeks) of 92.8 mg/kg/day, a TD50 (strain Fischer 344, males, site: subcutaneous tissue, lesion: fibroma + sarcoma, dosed 97 weeks, study length 97 weeks) of 131 mg/kg/day and a TD50 (strain Fischer 344, males, site: subcutaneous tissue, lesion: fibroma, dosed 97 weeks, study length 97 weeks) of 150 mg/kg/day. For the same molecule, the TD50 (strain Fischer 344, males, site: testis, lesion: interstitial-cell adenoma, bilateral + interstitial-cell adenoma, dosed 97 weeks, study length 97 weeks) was 12.9 mg/kg/day, the TD50 (strain Fischer 344, males, site: thyroid gland, lesion: c-cell adenoma + c-cell adenoma, bilateral, dosed 97 weeks, study length 97 weeks) was 143 mg/kg/day and the TD50 (strain Fischer 344, males, site: thyroid gland, lesion: c-cell adenoma + c-cell carcinoma, bilateral + c-cell carcinoma + c-cell adenoma, bilateral, dosed 97 weeks, study length 97 weeks) was 116 mg/kg/day. For the same molecule, the TD50 (strain Fischer 344, males, site: thyroid gland, lesion: follicular-cell adenoma + follicular-cell carcinoma, dosed 97 weeks, study length 97 weeks) was 103 mg/kg/day, the TD50 (strain Fischer 344, males, site: thyroid gland, lesion: follicular-cell adenoma, dosed 97 weeks, study length 97 weeks) was 49.7 mg/kg/day and the TD50 (strain Fischer 344, males, site: thyroid gland, lesion: follicular-cell carcinoma, dosed 97 weeks, study length 97 weeks) was 331 mg/kg/day. For the same molecule, the TD50 (strain Fischer 344, males, site: tongue, lesion: squamous-cell carcinoma + squamous-cell papilloma, dosed 97 weeks, study length 97 weeks) was 371 mg/kg/day.
In the case of `CC(O)C(=O)O` (stereo not drawn), the TD50 (strain F344/DuCrj, females, site: any site (literature study), lesion: one or several types, types not named, dosed 104 weeks, study length 113 weeks) is reported as 103000 mg/kg/day and the TD50 (strain F344/DuCrj, males, site: liver, lesion: hepatocellular adenoma, dosed 104 weeks, study length 113 weeks) is reported as 54500 mg/kg/day.
`CCCCCCCCCCCCCCCC(=O)OC/C=C(C)/C=C/C=C(C)/C=C/C1=C(C)CCCC1(C)C` was tested, and the carcinogen call (mouse, strain ICR/Jcl, males, site: forestomach, lesion: one or several types, types not named, dosed 66 weeks, study length 66 weeks) was “negative (inactive)”.
